The numbers were not newly measured in patent publication US20220409533A1, “LAG TIME REDUCTION/ICE SPRAY” (LTS LOHMANN THERAPIE-SYSTEME AG, priority 2019, published 2022), which cites them from elsewhere.

For the data set the following is noted: transdermal application.

`CN1CCCC1c1cccnc1` (stereo not shown) [nicotine]: the “resorption delay time (lag time)” value is 6 h.
